Test results published in PubChem BioAssay AID256 (DTP/NCI, 2004).
Values joined by “and” are separate entries in the source; they are usually repeats but may differ in a detail not shown here. Equal entries are not always repeated. Toxic doses and inconclusive results are not listed. How the source made its calls: active means survival T/C of 150% or more; inactive means T/C below 125% in these data.

System: CD2F1 mice, L1210 leukemia ip, survival T/C
Test: NCI In Vivo Anticancer Drug Screen. Data for tumor model L1210 Leukemia (intraperitoneal) in CD2F1 (CDF1) mice
Conditions: higher = longer survival
In short: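 Tumor-bearing mice (transplanted tumor) were split into treated and vehicle control groups, and the measured endpoint of each treated group was divided by that of its vehicle controls.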

[1] = endpoint: mean survival time, dose: 100.0 mg/kg/injection, schedule: Q01DX001 (ip), vehicle: saline
[2] = endpoint: mean survival time, dose: 200.0 mg/kg/injection, schedule: Q01DX001 (ip), vehicle: saline
[3] = endpoint: mean survival time, dose: 400.0 mg/kg/injection, schedule: Q01DX001 (ip), vehicle: saline
[4] = endpoint: mean survival time, dose: 75.0 mg/kg/injection, schedule: Q01DX001 (ip), vehicle: saline
[5] = endpoint: mean survival time, dose: 200.0 mg/kg/injection, schedule: Q04DX003 (ip), vehicle: saline with Tween-80
[6] = endpoint: mean survival time, dose: 400.0 mg/kg/injection, schedule: Q04DX003 (ip), vehicle: saline with Tween-80
[7] = endpoint: mean survival time, dose: 25.0 mg/kg/injection, schedule: Q01DX009 (ip), vehicle: saline with Tween-80
[8] = endpoint: mean survival time, dose: 100.0 mg/kg/injection, schedule: Q01DX009 (ip), vehicle: saline with Tween-80

Measured: T/C

O=c1cc[nH]c2cc(Cl)ccc12
inactive: endpoint: mean survival time, dose: 100.0 mg/kg/injection, schedule: Q04DX003 (ip), vehicle: alcohol 89 % of control | endpoint: mean survival time, dose: 200.0 mg/kg/injection, schedule: Q04DX003 (ip), vehicle: alcohol 96 % of control

NNC(=O)c1ccccc1Cl
inactive: endpoint: mean survival time, dose: 9.5 mg/kg/injection, schedule: Q01DX001 (ip), vehicle: other 97 % of control | endpoint: mean survival time, dose: 19.0 mg/kg/injection, schedule: Q01DX001 (ip), vehicle: other 95 % of control | endpoint: mean survival time, dose: 38.0 mg/kg/injection, schedule: Q01DX001 (ip), vehicle: other 97 % of control

O=C1CC(c2ccccc2)CO1 (stereo not drawn)
inactive: [1] 106 % of control | [2] 100 % of control

Nc1nc2c(c(=O)[nH]1)N(CCCCCO)C(CNc1ccc(C(=O)NC(CCC(=O)O)C(=O)O)cc1)CN2 (stereo not drawn)
inactive: [1] 97 % of control | [2] 103 % of control | [3] 97 % of control

Cc1c(N)nc(C(CC(N)=O)NCC(N)C(N)=O)nc1C(=O)NC(C(=O)NC(C)C(O)C(C)C(=O)NC(C(=O)NCCc1nc(-c2nc(C(=O)NCCCNC(C)c3ccccc3)cs2)cs1)C(C)O)C(OC1OC(CO)C(O)C(O)C1OC1OC(CO)C(O)C(OC(N)=O)C1O)c1cnc[nH]1 (stereo not drawn)
inactive: endpoint: mean survival time, dose: 0.25 mg/kg/injection, schedule: Q01DX009 (ip), vehicle: water 100 % of control | endpoint: mean survival time, dose: 0.5 mg/kg/injection, schedule: Q01DX009 (ip), vehicle: water 103 % of control and 105 % of control | endpoint: mean survival time, dose: 1.0 mg/kg/injection, schedule: Q01DX009 (ip), vehicle: saline 103 % of control | endpoint: mean survival time, dose: 1.0 mg/kg/injection, schedule: Q01DX009 (ip), vehicle: water 123 % of control and 98 % of control | endpoint: mean survival time, dose: 2.0 mg/kg/injection, schedule: Q01DX009 (ip), vehicle: saline 106 % of control | endpoint: mean survival time, dose: 2.0 mg/kg/injection, schedule: Q01DX009 (ip), vehicle: water 104 % of control and 109 % of control | endpoint: mean survival time, dose: 4.0 mg/kg/injection, schedule: Q01DX009 (ip), vehicle: saline 104 % of control | endpoint: mean survival time, dose: 4.0 mg/kg/injection, schedule: Q01DX009 (ip), vehicle: water 113 % of control and 102 % of control | endpoint: mean survival time, dose: 8.0 mg/kg/injection, schedule: Q01DX009 (ip), vehicle: saline 106 % of control | endpoint: mean survival time, dose: 8.0 mg/kg/injection, schedule: Q01DX009 (ip), vehicle: water 109 % of control | endpoint: mean survival time, dose: 16.0 mg/kg/injection, schedule: Q01DX009 (ip), vehicle: saline 101 % of control | endpoint: mean survival time, dose: 16.0 mg/kg/injection, schedule: Q01DX009 (ip), vehicle: water 113 % of control | endpoint: mean survival time, dose: 32.0 mg/kg/injection, schedule: Q01DX009 (ip), vehicle: saline 89 % of control

CC(=[C-]C(=O)O)C(=O)O.[NH-]C1CCCCC1[NH-].[Pt]
inactive: endpoint: median survival time, dose: 6.25 mg/kg/injection, schedule: Q04DX003 (ip), vehicle: saline 100 % of control | endpoint: median survival time, dose: 12.5 mg/kg/injection, schedule: Q04DX003 (ip), vehicle: saline 100 % of control | endpoint: median survival time, dose: 25.0 mg/kg/injection, schedule: Q04DX003 (ip), vehicle: saline 102 % of control | endpoint: median survival time, dose: 50.0 mg/kg/injection, schedule: Q04DX003 (ip), vehicle: saline 108 % of control | endpoint: median survival time, dose: 100.0 mg/kg/injection, schedule: Q04DX003 (ip), vehicle: saline 112 % of control

Cc1c2cc3c(cc2cc2c4cc5c(cc4cc[n+]12)OCO5)OCO3 (tested in a mixture with another compound)
inactive: endpoint: mean survival time, dose: 6.25 mg/kg/injection, schedule: Q04DX003 (ip), vehicle: saline 116 % of control and 121 % of control | endpoint: mean survival time, dose: 18.75 mg/kg/injection, schedule: Q04DX003 (ip), vehicle: saline 95 % of control | endpoint: mean survival time, dose: 25.0 mg/kg/injection, schedule: Q04DX003 (ip), vehicle: saline 115 % of control and 90 % of control

COC(=O)C1C2CC3c4[nH]c5cc(OC)c(Br)cc5c4CCN3CC2CC(OC(=O)c2cc(OC)c(OC)c(OC)c2)C1OC (stereo not drawn)
inactive: [4] 92 % of control | endpoint: mean survival time, dose: 150.0 mg/kg/injection, schedule: Q01DX001 (ip), vehicle: saline 103 % of control | endpoint: mean survival time, dose: 300.0 mg/kg/injection, schedule: Q01DX001 (ip), vehicle: saline 105 % of control

COc1ccc(C(=O)CC(C#N)c2ccc3c(c2)OCO3)cc1OC (stereo not drawn)
inactive: endpoint: mean survival time, dose: 100.0 mg/kg/injection, schedule: Q04DX003 (ip), vehicle: saline with Tween-80 93 % of control | [5] 91 % of control | [6] 93 % of control

O/N=C/c1ccccc1O.O/N=C/c1ccccc1O.[Cu]
inactive: endpoint: mean survival time, dose: 1.56 mg/kg/injection, schedule: Q01DX009 (ip), vehicle: saline with Tween-80 98 % of control and 103 % of control | endpoint: mean survival time, dose: 3.12 mg/kg/injection, schedule: Q01DX009 (ip), vehicle: saline with Tween-80 102 % of control and 106 % of control | endpoint: mean survival time, dose: 6.25 mg/kg/injection, schedule: Q01DX009 (ip), vehicle: saline with Tween-80 93 % of control and 101 % of control | endpoint: mean survival time, dose: 12.5 mg/kg/injection, schedule: Q01DX009 (ip), vehicle: saline with Tween-80 100 % of control and 108 % of control | [7] 114 % of control and 100 % of control

CC(C)(C)OC(=O)NC(CCC(=O)OCc1ccccc1)C(=O)O (stereo not drawn) (tested in a mixture with another compound)
inactive: [7] 91 % of control | [8] 96 % of control and 98 % of control

CC(NC(=O)CCl)C(=O)O (stereo not drawn)
inactive: endpoint: mean survival time, dose: 100.0 mg/kg/injection, schedule: Q04DX003 (ip), vehicle: saline 94 % of control | endpoint: mean survival time, dose: 200.0 mg/kg/injection, schedule: Q04DX003 (ip), vehicle: saline 100 % of control

CC1C(=O)C(Br)CC2C1(C)CCC1C2(C)CCC2(C)C3CC(C)(C)CCC3(C)CCC12C (stereo not drawn)
inactive: [1] 97 % of control | [2] 97 % of control | [3] 97 % of control

NCCNc1ccccc1C(=O)O
inactive: endpoint: median survival time, dose: 50.0 mg/kg/injection, schedule: Q04DX002 (ip), vehicle: saline with Tween-80 111 % of control | endpoint: median survival time, dose: 100.0 mg/kg/injection, schedule: Q04DX002 (ip), vehicle: saline with Tween-80 100 % of control | endpoint: median survival time, dose: 200.0 mg/kg/injection, schedule: Q04DX002 (ip), vehicle: saline with Tween-80 100 % of control | endpoint: median survival time, dose: 400.0 mg/kg/injection, schedule: Q04DX002 (ip), vehicle: saline with Tween-80 111 % of control

O=c1cc(Nc2cccc(Cl)c2Cl)[nH]c(=O)[nH]1
inactive: endpoint: mean survival time, dose: 100.0 mg/kg/injection, schedule: Q01DX001 (ip), vehicle: saline with Tween-80 93 % of control and 97 % of control | endpoint: mean survival time, dose: 100.0 mg/kg/injection, schedule: Q04DX002 (ip), vehicle: saline with Tween-80 118 % of control and 91 % of control | endpoint: mean survival time, dose: 200.0 mg/kg/injection, schedule: Q01DX001 (ip), vehicle: saline with Tween-80 97 % of control and 98 % of control | endpoint: mean survival time, dose: 200.0 mg/kg/injection, schedule: Q04DX002 (ip), vehicle: saline with Tween-80 90 % of control and 92 % of control | endpoint: mean survival time, dose: 400.0 mg/kg/injection, schedule: Q01DX001 (ip), vehicle: saline with Tween-80 95 % of control and 97 % of control | endpoint: mean survival time, dose: 400.0 mg/kg/injection, schedule: Q04DX002 (ip), vehicle: saline with Tween-80 91 % of control and 100 % of control

Cc1cc2c(C)c3cc(C)c(N)cc3nc2cc1N
inactive: [4] 103 % of control

CNc1nc(SC)nc2c1cnn2C1OC(CO)C(O)C1O (stereo not drawn)
inactive: endpoint: median survival time, dose: 10.75 mg/kg/injection, schedule: Q01DX005 (ip), vehicle: saline with Tween-80 103 % of control | endpoint: median survival time, dose: 21.5 mg/kg/injection, schedule: Q01DX005 (ip), vehicle: saline with Tween-80 97 % of control | endpoint: median survival time, dose: 43.0 mg/kg/injection, schedule: Q01DX005 (ip), vehicle: saline with Tween-80 107 % of control | endpoint: median survival time, dose: 86.0 mg/kg/injection, schedule: Q01DX005 (ip), vehicle: saline with Tween-80 100 % of control

CCC[CH2][Sn]1([CH2]CCC)[O]C2C(CO)OC(n3ccc(N)nc3=O)C2[O]1 (stereo not drawn)
inactive: endpoint: mean survival time, dose: 0.78 mg/kg/injection, schedule: Q01DX009 (ip), vehicle: Klucel (hydroxypropylcellulose) (HPC) 116 % of control | endpoint: mean survival time, dose: 1.56 mg/kg/injection, schedule: Q01DX005 (ip), vehicle: other 104 % of control | endpoint: mean survival time, dose: 1.56 mg/kg/injection, schedule: Q01DX009 (ip), vehicle: Klucel (hydroxypropylcellulose) (HPC) 113 % of control | endpoint: mean survival time, dose: 3.13 mg/kg/injection, schedule: Q01DX005 (ip), vehicle: other 104 % of control | endpoint: mean survival time, dose: 6.25 mg/kg/injection, schedule: Q01DX005 (ip), vehicle: other 113 % of control | endpoint: mean survival time, dose: 6.25 mg/kg/injection, schedule: Q01DX009 (ip), vehicle: Klucel (hydroxypropylcellulose) (HPC) 115 % of control

O=C(/C=C\c1ccccc1)c1ccc(Cl)cc1
inactive: endpoint: mean survival time, dose: 100.0 mg/kg/injection, schedule: Q01DX001 (ip), vehicle: other 90 % of control | endpoint: mean survival time, dose: 200.0 mg/kg/injection, schedule: Q01DX001 (ip), vehicle: other 92 % of control | endpoint: mean survival time, dose: 400.0 mg/kg/injection, schedule: Q01DX001 (ip), vehicle: other 88 % of control

O=C(/C=C(\NC1CCCCC1)C(=O)c1ccccc1)c1ccccc1
inactive: [8] 87 % of control | endpoint: mean survival time, dose: 200.0 mg/kg/injection, schedule: Q01DX009 (ip), vehicle: saline with Tween-80 98 % of control | [5] 86 % of control | endpoint: mean survival time, dose: 400.0 mg/kg/injection, schedule: Q01DX009 (ip), vehicle: saline with Tween-80 97 % of control | [6] 86 % of control
